Results: patent US6699660B2, “Immediate early genes and methods of use therefor” (The Johns Hopkins University School of Medicine, priority 1998, dated 2004)

Columns and labels:
[1] = tested on: R010 expression in PC12 cells; test: NGF treatment of PC12 cells, R010 expression; assay type: cell-based
[2] = tested on: L100 mRNA; test: PTZ-induced seizures, mRNA expression by Northern blot; assay type: in vivo, rat; conditions: for Fold increase in L100 mRNA expression upon PTZ treatment: vs PBS; for L100 mRNA expression normalized to GADPH expression: Integral PSL - background PSL
Experimental: (§1) PTZ-induced seizures is a model used to study epilepsy and ischemia. Briefly, 300-350 g male Sprague-Dawley rats were intrapertoneally injected with either 50 mg/kg body weight of PTZ or PBS. Total RNA samples from the hippocampus, cortex, and cerebellum were prepared from treated rats at 20 minutes, 6 hours, and 24 hours post-injection. This RNA then was used to measure mRNA expression by Northern blot analysis. Control mRNA measurements included c-fos and GAPDH. A Phosphoimager FLA2000 (Fuji) was used to analyze the data, which was expressed as the Integral PSL—background PSL (1D evaluation with Aida version 2.0).

[3] = tested on: L119 mRNA; test: as above; assay type: in vivo, rat; conditions: for Fold increase in L119 mRNA expression upon PTZ treatment: 20 min, vs PBS; for L119 mRNA expression normalized to GADPH expression: 20 min after PTZ 50 mg/kg i.p., Integral PSL - background PSL
Experimental: as §1

[4] = tested on: R113 mRNA; test: as above; assay type: in vivo, rat; conditions: hippocampus, 6 hour, vs PBS
Experimental: as §1

[5] = tested on: R286 mRNA; test: as above; assay type: in vivo, rat; conditions: hippocampus, 6 hour, vs PBS
Experimental: as §1
(§2) In addition, rats that developed seizures following intraperitoneal injection of kainate or PTZ were analyzed for the expression of R286 mRNA in addition to the mRNA of other LEG clones (Tables III and V).

[6] = tested on: R286 mRNA; test: PTZ-induced seizures, in situ hybridization; assay type: in vivo, rat
Experimental: (§3) For in situ hybridization, Dig-labeled cRNA probes were used as described elsewhere (Kuner et al., Science 283:5398 (1999)). Specifically, R286 mRNA expression was the highest in the cortex and hippocampus while being moderately high in the cerebellar granule cells, brainstem nuclei, several lateral and medial thalamic nuclei, olfactory bulb, and striatum. […] Briefly, a probe from the 3′ untranslated region of R286 was used to hybridize a Northern blot containing 2 μg polyA^+ RNA from hippocampus from brains of untreated rats as well as rats receiving the multiple MECS treatment. After one day of exposure using the phosphoimager FLA2000 (Fuji), an upregulation of R286 mRNA was detected in the hippocampus (3.72 fold induction) collected four hours after the last MECS treatment. An additional Northern blot analysis using 10 μg total RNA from hippocampus from untreated rats and rats receiving the multiple MECS treatment was performed.
as §2

[7] = tested on: c-fos mRNA; test: 3-NP ischemia model, Northern blot of total brain RNA; assay type: in vivo, rat; conditions: 3-NP 20 mg/kg i.p., three hours post-injection, total brain RNA without cerebellum; PSL - background; untreated 18.1
[8] = tested on: GAPDH mRNA; test: as above; assay type: in vivo, rat; conditions: 3-NP 20 mg/kg i.p., three hours post-injection, total brain RNA without cerebellum; PSL - background; untreated 487.02
Experimental: (§4) In another study, the expression pattern of L100 and L119 was determined using two models for ischemia. Briefly, neurons degenerate in brain and spinal cord after acute insults (e.g., stroke, cardiac arrest, and trauma) and during progressive, adult-onset diseases (e.g., amyotrophic lateral sclerosis, and Alzheimer's disease). Impaired energy metabolism plays an important role in neuronal cell death after brain ischemia, and apoptosis has been implicated in cell death induced by metabolic impairment. The irreversible inhibitor of succinate dehydrogenase in the mitochondria, 3-nitroproplonic acid (3-NP), inhibits oxidative phosphorylation and causes intracellular hypoxia. Thus, one model used to study ischemia involves intrastriatal injections of 3-NP, which is known to produce selective cell death similar to that observed in transient ischemia and Huntington's disease (McLaughlin et al., J. Neurochem 70:2406-2415 (1998)). The other model is a global ischemic paradigm that involves a 15 minute insult by complete occlusion of the carotis.
(§5) In the 3-NP study, 220-300 g Wistar rats were intraperitoneally injected with 20 mg/kg body weight. Three hours post-injections, the brain was removed and total RNA prepared. In the global ischemia study, 220-300 g Wistar rats were received a 15 minute insult (bilateral occlusion of the Carotis/arterial pressure=35 mm Hg). One hour later, the rats received a reperfusion followed by immediate brain dissection and total RNA preparation. Untreated rats were used as controls for each study. Ten (10) μg of total rat brain RNA (without cerebellum) was loaded per lane and blotted. Probes were prepared from the 3′ untranslated regions of L100 and L119. The Northern blot data was collected using a Phosphoimager (FLA2000 Fuji, Tina software) and expressed as PSL—background.

[9] = tested on: L100 mRNA; test: as above; assay type: in vivo, rat; conditions: 3-NP 20 mg/kg i.p., three hours post-injection, total brain RNA without cerebellum; PSL - background; untreated 30.95
Experimental: as §4, §5

[10] = tested on: L119 mRNA; test: as above; assay type: in vivo, rat; conditions: 3-NP 20 mg/kg i.p., three hours post-injection, total brain RNA without cerebellum; PSL - background; untreated 55.48
Experimental: as §4, §5

[11] = tested on: A013 mRNA; test: kainate-induced seizures, mRNA expression by Northern blot and RT-PCR; assay type: in vivo, rat; conditions: hippocampus, 1.5 hour, vs PBS
Experimental: (§6) Kainate-induced seizures is a model used to study epilepsy. Briefly, 300-350 g male Sprague-Dawley rats were intrapertoneally injected with either 10 mg/kg body weight of kainate or PBS. RNA samples from the hippocampus, cortex, and cerebellum were prepared from treated rats at 1.5, 6, and 24 hours post-injection. This RNA then was used to measure mRNA expression by Northern blot and RT-PCR analysis. Control mRNA measurements included c-fos, GAPDH, NO-38, and ATF-4 for the Northern blot analysis, and Hsp70, c-jun, Zif268, c-fos, Clathrin, and β-actin for the RT-PCR analysis. A Phosphoimager FLA2000 (Fuji) was used to analyze the data, which was expressed as the Integral PSL—background PSL (1D evaluation with Aida version 2.0).

[12] = tested on: L094 mRNA; test: as above; assay type: in vivo, rat; conditions: hippocampus, 1.5 hour, vs PBS
Experimental: as §6

[13] = tested on: L100 mRNA; test: as above; assay type: in vivo, rat; conditions: for L100 mRNA expression normalized to GADPH expression: Integral PSL - background PSL; for Fold increase in L100 mRNA expression upon kainate treatment: vs PBS
Experimental: as §6

[14] = tested on: L119 mRNA; test: as above; assay type: in vivo, rat; conditions: for L119 mRNA expression normalized to GADPH expression: Integral PSL - background PSL; for Fold increase in L119 mRNA expression upon kainate treatment: vs PBS
Experimental: as §6

[15] = tested on: R113 mRNA; test: as above; assay type: in vivo, rat; conditions: hippocampus, 1.5 hour, vs PBS
Experimental: as §6

[16] = tested on: L100 mRNA; test: kainate-induced seizures, in situ hybridization; assay type: in vivo, rat; conditions: six hours following kainate injection
Experimental: For in situ hybridization, Dig-labeled cRNA probes were used as described elsewhere (Kuner et al., Science 283:5398 (1999)). […] Specifically, L100 mRNA expression was induced 17.2 fold by the multiple MECS treatment as determined from Northern blot data using total RNA from rat hippocampus (Table I).
as §6

[17] = tested on: R286 mRNA; test: kainate-induced seizures, in situ hybridization; assay type: in vivo, rat
Experimental: as §3, §2

[18] = cortex, 6 hour after kainate 10 mg/kg i.p.
[19] = cortex, 24 hour after kainate 10 mg/kg i.p.
[20] = hippocampus, 1.5 hour after kainate 10 mg/kg i.p.
[21] = hippocampus, 6 hour after kainate 10 mg/kg i.p.
[22] = hippocampus, 24 hour after kainate 10 mg/kg i.p.

NGF: NGF used to treat PC12 cells
R010 expression in vitro [1]: rapidly induced

C1CCc2nnnn2CC1 [PTZ, pentylenetetrazole]
expression of L100 mRNA when acute seizures were induced by PTZ treatment ([2]; PTZ 50 mg/kg i.p.): strongly upregulated
Fold increase in L100 mRNA expression upon PTZ treatment ([2]; cortex, 20 min): 2.84 fold
L100 mRNA expression normalized to GADPH expression ([2]; cortex, 20 min after PTZ 50 mg/kg i.p.): 2719
L100 mRNA expression normalized to GADPH expression ([2]; cortex, 6 hour after PTZ 50 mg/kg i.p.): 3740
Fold increase in L100 mRNA expression upon PTZ treatment ([2]; cortex, 6 hour): 3.22 fold
L100 mRNA expression normalized to GADPH expression ([2]; cortex, 24 hour after PTZ 50 mg/kg i.p.): 1825
Fold increase in L100 mRNA expression upon PTZ treatment ([2]; cortex, 24 hour): 1.55 fold
Fold increase in L100 mRNA expression upon PTZ treatment ([2]; hippocampus, 20 min): 3.1 fold
L100 mRNA expression normalized to GADPH expression ([2]; hippocampus, 20 min after PTZ 50 mg/kg i.p.): 1637
L100 mRNA expression normalized to GADPH expression ([2]; hippocampus, 6 hour after PTZ 50 mg/kg i.p.): 1992
Fold increase in L100 mRNA expression upon PTZ treatment ([2]; hippocampus, 6 hour): 2.33 fold
L100 mRNA expression normalized to GADPH expression ([2]; hippocampus, 24 hour after PTZ 50 mg/kg i.p.): 1903
Fold increase in L100 mRNA expression upon PTZ treatment ([2]; hippocampus, 24 hour): 1.97 fold
Fold increase in L119 mRNA expression upon PTZ treatment ([3]; cortex): 2.78 fold
L119 mRNA expression normalized to GADPH expression ([3]; cortex): 1605
Fold increase in L119 mRNA expression upon PTZ treatment ([3]; hippocampus): 2.82 fold
L119 mRNA expression normalized to GADPH expression ([3]; hippocampus): 965
Fold increase in R113 mRNA expression upon PTZ treatment [4]: 2.0 fold
Fold increase in R286 mRNA expression upon PTZ treatment [5]: 2.6 fold
R286 mRNA expression by in situ hybridization ([6]; 20 minutes post-PTZ injection): no upregulation
R286 mRNA expression by in situ hybridization ([6]; 6 hours post-PZT injection, hippocampal pyramidal cell layer, cortex, thalamus, cerebellar Purkinje cell layer): mildly upregulated

O=C(O)CC[N+](=O)[O-] [3-NP, 3-nitroproplonic acid]
c-fos mRNA expression after 3-NP treatment [7]: 26.64
GAPDH mRNA expression after 3-NP treatment [8]: 587.51
L100 mRNA expression after 3-NP treatment [9]: 43.82
L119 mRNA expression after 3-NP treatment [10]: 41.94

C=C(C)[C@H]1CN[C@H](C(=O)O)[C@H]1CC(=O)O [kainate]
Fold increase in A013 mRNA expression upon kainate treatment [11]: 9.8 fold
Fold increase in L094 mRNA expression upon kainate treatment [12]: 3.6 fold
L100 mRNA expression normalized to GADPH expression [13, 18]: 290
Fold increase in L100 mRNA expression upon kainate treatment ([13]; cortex, 6 hour): 3.58 fold
L100 mRNA expression normalized to GADPH expression [13, 19]: 131
Fold increase in L100 mRNA expression upon kainate treatment ([13]; cortex, 24 hour): 1.52 fold
L100 mRNA expression normalized to GADPH expression [13, 20]: 85251
Fold increase in L100 mRNA expression upon kainate treatment ([13]; hippocampus, 1.5 hour): 18.44 fold
L100 mRNA expression normalized to GADPH expression [13, 21]: 15444
Fold increase in L100 mRNA expression upon kainate treatment ([13]; hippocampus, 6 hour): 1.97 fold
L100 mRNA expression normalized to GADPH expression [13, 22]: 16551
Fold increase in L100 mRNA expression upon kainate treatment ([13]; hippocampus, 24 hour): 4.20 fold
expression of L100 mRNA when acute seizures were induced by kainate treatment ([13]; kainate 10 mg/kg i.p.): strongly upregulated
L119 mRNA expression normalized to GADPH expression [14, 18]: 1262
L119 mRNA expression normalized to GADPH expression [14, 19]: 505
L119 mRNA expression normalized to GADPH expression [14, 20]: 69982
Fold increase in L119 mRNA expression upon kainate treatment ([14]; hippocampus, 1.5 hour): 24.85 fold
L119 mRNA expression normalized to GADPH expression [14, 21]: 11519
Fold increase in L119 mRNA expression upon kainate treatment ([14]; hippocampus, 6 hour): 2.51 fold
L119 mRNA expression normalized to GADPH expression [14, 22]: 12944
Fold increase in L119 mRNA expression upon kainate treatment ([14]; hippocampus, 24 hour): 4.64 fold
Fold increase in R113 mRNA expression upon kainate treatment [15]: 2.0 fold
L100 mRNA regulation by in situ hybridization ([16]; dentate gyrus, CA3 and CA4 of hippocampus, entorrhinal cortex, cingulum, fimbria): strong upregulation
L100 mRNA regulation by in situ hybridization ([16]; thalamic nuclei, temporal, parietal, frontal, medial orbital and cingulate cortex, cerebellar granule cells): Moderate upregulation
R286 mRNA expression by in situ hybridization ([17]; 1.5 hours post-kainate injection): no upregulation
R286 mRNA expression by in situ hybridization ([17]; 6 hours post-kainate injection, hippocampal pyramidal cell layer, cortex, thalamus, cerebellar Purkinje cell layer): mildly upregulated
